Measured values reported in ChEMBL document CHEMBL3351683, “Synthesis of lantadene analogs with marked in vitro inhibition of lung adenocarcinoma and TNF-α induced nuclear factor-kappa B (NF-κB) activation” (Bioorg Med Chem Lett, 2014).
Activity calls are given as the source filed them. The calls are words filed in the database; no cut-off is given here.

Assays:
A549 = experiment: Cytotoxicity against human A549 cells after 48 hrs by MTT assay; format: functional, cell-based; details: A549, 48 h
[1] = molecular target: T1, Inhibitor of nuclear factor kappa-B kinase subunit beta (Homo sapiens, UniProt O14920); experiment: Inhibition of phosphorylation of human recombinant Flag-tagged IKKbeta expressed in Sf21 cells after 1 hr by Kinase-Glo luminescent kinase assay
T1 sequence (O14920 whole entry): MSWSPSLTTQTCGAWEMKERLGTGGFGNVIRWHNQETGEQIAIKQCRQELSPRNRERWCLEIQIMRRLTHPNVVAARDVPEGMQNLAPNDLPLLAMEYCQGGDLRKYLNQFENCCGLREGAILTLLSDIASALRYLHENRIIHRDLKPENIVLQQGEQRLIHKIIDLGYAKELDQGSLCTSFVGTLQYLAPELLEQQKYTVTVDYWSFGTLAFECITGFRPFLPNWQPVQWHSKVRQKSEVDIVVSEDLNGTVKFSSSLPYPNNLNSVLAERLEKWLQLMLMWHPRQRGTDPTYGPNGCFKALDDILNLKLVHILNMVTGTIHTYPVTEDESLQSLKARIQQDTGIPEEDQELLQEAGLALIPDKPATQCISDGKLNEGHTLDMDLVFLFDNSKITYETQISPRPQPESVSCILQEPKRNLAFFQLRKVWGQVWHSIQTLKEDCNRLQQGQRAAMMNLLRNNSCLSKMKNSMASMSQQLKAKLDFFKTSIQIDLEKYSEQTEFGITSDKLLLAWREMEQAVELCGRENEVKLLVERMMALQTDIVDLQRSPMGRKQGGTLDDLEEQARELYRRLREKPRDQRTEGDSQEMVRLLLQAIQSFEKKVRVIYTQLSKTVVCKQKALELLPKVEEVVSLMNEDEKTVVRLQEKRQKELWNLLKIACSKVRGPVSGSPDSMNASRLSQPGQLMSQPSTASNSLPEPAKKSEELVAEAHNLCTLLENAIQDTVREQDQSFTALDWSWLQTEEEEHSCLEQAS

[2] = Stability in simulated gastric fluid at pH 2 assessed as compound remaining measured at 5 mg/ml at 2 hrs by HPLC analysis; format: ADME; details: read-out: Stability
[3] = Stability in simulated gastric fluid at pH 2 assessed as compound remaining measured at 5 mg/ml at 5 hrs by HPLC analysis; format: ADME; details: read-out: Stability
[4] = Stability in simulated gastric fluid at pH 2 assessed as compound remaining measured at 5 mg/ml at 8 hrs by HPLC analysis; format: ADME; details: read-out: Stability
[5] = Stability in simulated gastric fluid at pH 2 assessed as compound remaining measured at 5 mg/ml at 12 hrs by HPLC analysis; format: ADME; details: read-out: Stability
[6] = Metabolic stability in 80% human plasma assessed as compound remaining at 5 mg/ml at 15 mins by HPLC analysis; format: ADME, cell-free; details: read-out: Stability
[7] = Metabolic stability in 80% human plasma assessed as compound remaining at 5 mg/ml at 30 mins by HPLC analysis; format: ADME, cell-free; details: read-out: Stability
[8] = Metabolic stability in 80% human plasma assessed as compound remaining at 5 mg/ml at 60 mins by HPLC analysis; format: ADME, cell-free; details: read-out: Stability
[9] = Metabolic stability in 80% human plasma assessed as compound remaining at 5 mg/ml at 120 mins by HPLC analysis; format: ADME, cell-free; details: read-out: Stability
[10] = molecular target: T2, Inhibitor of nuclear factor kappa-B kinase subunit beta (Homo sapiens) (UniProt O14920); details: A549, 0.5 to 1 uM
T2 sequence (whole entry): T1 sequence (O14920 whole entry)
Description: Inhibition of TNFalpha-induced IKKbeta-mediated IkappaB degradation in human A549 cells compound treated for 8 hrs at 0.5 to 1 uM followed by TNFalpha stimulation measured after 30 mins by Western blot analysis relative to control

With `C/C=C(/C)C(=O)O[C@@H]1CC(C)(C)C[C@H]2C3=CC[C@@H]4[C@@]5(C)CC[C@H](OC(=O)c6ccccc6F)C(C)(C)[C@@H]5CC[C@@]4(C)[C@]3(C)CC[C@@]12C(=O)O` the IC50 (A549) was 2.04 µM.

For `CC(C)C(=O)O[C@@H]1CC(C)(C)C[C@H]2C3=CC[C@@H]4[C@@]5(C)CCC(=O)C(C)(C)[C@@H]5CC[C@@]4(C)[C@]3(C)CC[C@@]12C(=O)O`, the IC50 (A549) was > 10 µM.

With `C/C=C(/C)C(=O)O[C@@H]1CC(C)(C)C[C@H]2C3=CC[C@@H]4[C@@]5(C)CC[C@H](OC(=O)CCC)C(C)(C)[C@@H]5CC[C@@]4(C)[C@]3(C)CC[C@@]12C(=O)O` the IC50 (A549) was > 10 µM.

`CC(C)=CC(=O)O[C@@H]1CC(C)(C)C[C@H]2C3=CC[C@@H]4[C@@]5(C)CC[C@H](OC(=O)c6ccc(Cl)cc6)C(C)(C)[C@@H]5CC[C@@]4(C)[C@]3(C)CC[C@@]12C(=O)O` showed an IC50 [1] of 1.54 µM, an IC50 (A549) of 1.12 µM and a remaining at 2 h, 5 mg/ml [2] of 92.2%. The remaining at 5 h, 5 mg/ml [3] was 86.5%, the remaining at 8 h, 5 mg/ml [4] was 80.3% and the remaining at 12 h, 5 mg/ml [5] was 72.8%. For the same molecule, the remaining at 0.25 h, 5 mg/ml [6] was 70.2%, the remaining at 0.5 h, 5 mg/ml [7] was 52.2% and the remaining at 1 h, 5 mg/ml [8] was 44.3%. It also gave a remaining at 2 h, 5 mg/ml [9] of 32.3%.

With `C/C=C(/C)C(=O)O[C@@H]1CC(C)(C)C[C@H]2C3=CC[C@@H]4[C@@]5(C)CC[C@H](OC(=O)C(C)C)C(C)(C)[C@@H]5CC[C@@]4(C)[C@]3(C)CC[C@@]12C(=O)O` the IC50 (A549) was > 10 µM.

`C/C=C(/C)C(=O)O[C@@H]1CC(C)(C)C[C@H]2C3=CC[C@@H]4[C@@]5(C)CC[C@H](OC(=O)c6ccc(Cl)cc6)C(C)(C)[C@@H]5CC[C@@]4(C)[C@]3(C)CC[C@@]12C(=O)O` showed an IC50 (A549) of 1.32 µM.

`CC(C)=CC(=O)O[C@@H]1CC(C)(C)C[C@H]2C3=CC[C@@H]4[C@@]5(C)CC[C@H](OC(=O)c6cccc(F)c6)C(C)(C)[C@@H]5CC[C@@]4(C)[C@]3(C)CC[C@@]12C(=O)O` showed an IC50 (A549) of 6.86 µM.

For `COc1cccc(C(=O)O[C@H]2CC[C@]3(C)[C@H]4CC=C5[C@@H]6CC(C)(C)C[C@@H](OC(=O)C=C(C)C)[C@]6(C(=O)O)CC[C@@]5(C)[C@]4(C)CC[C@H]3C2(C)C)c1`, the IC50 [1] was 1.36 µM, the IC50 (A549) was 0.98 µM and the remaining at 2 h, 5 mg/ml [2] was 93%. It also gave a remaining at 5 h, 5 mg/ml [3] of 88.2%, a remaining at 8 h, 5 mg/ml [4] of 83.3% and a remaining at 12 h, 5 mg/ml [5] of 77.2%. For the same molecule, the remaining at 0.25 h, 5 mg/ml [6] was 70.4%, the remaining at 0.5 h, 5 mg/ml [7] was 53.2% and the remaining at 1 h, 5 mg/ml [8] was 46.7%. For the same molecule, the remaining at 2 h, 5 mg/ml [9] was 35.3% and the inhibition [10] was “Active”.

`CC(C)=CC(=O)O[C@@H]1CC(C)(C)C[C@H]2C3=CC[C@@H]4[C@@]5(C)CC[C@H](OC(=O)C(C)C)C(C)(C)[C@@H]5CC[C@@]4(C)[C@]3(C)CC[C@@]12C(=O)O` gave an IC50 (A549) of 2.56 µM.

Work on `C/C=C(/C)C(=O)O[C@@H]1CC(C)(C)C[C@H]2C3=CC[C@@H]4[C@@]5(C)CCC(=O)C(C)(C)[C@@H]5CC[C@@]4(C)[C@]3(C)CC[C@@]12C(=O)O` [LANTADENE A] yielded an IC50 (A549) of 2.84 µM.

In the case of `C/C=C(/C)C(=O)O[C@@H]1CC(C)(C)C[C@H]2C3=CC[C@@H]4[C@@]5(C)CC[C@H](OC(=O)c6cccc(OC)c6)C(C)(C)[C@@H]5CC[C@@]4(C)[C@]3(C)CC[C@@]12C(=O)O`, the IC50 (A549) is reported as 1.84 µM.

In the case of `CCCC(=O)O[C@H]1CC[C@]2(C)[C@H]3CC=C4[C@@H]5CC(C)(C)C[C@@H](OC(=O)C=C(C)C)[C@]5(C(=O)O)CC[C@@]4(C)[C@]3(C)CC[C@H]2C1(C)C`, the IC50 (A549) is reported as > 10 µM.

With `C/C=C(/C)C(=O)O[C@@H]1CC(C)(C)C[C@H]2C3=CC[C@@H]4[C@@]5(C)CC[C@H](O)C(C)(C)[C@@H]5CC[C@@]4(C)[C@]3(C)CC[C@@]12C(=O)O` [Reduced Lantadene A] the IC50 [1] was 2.62 µM and the IC50 (A549) was 0.79 µM.

Molecule `CC(C)=CC(=O)O[C@@H]1CC(C)(C)C[C@H]2C3=CC[C@@H]4[C@@]5(C)CC[C@H](O)C(C)(C)[C@@H]5CC[C@@]4(C)[C@]3(C)CC[C@@]12C(=O)O` [Reduced Lantadene B] has an IC50 ([1]; sf21) of 4.24 µM and an IC50 (A549) of 0.43 µM.

With `CC1(C)C[C@@H](O)[C@]2(C(=O)O)CC[C@]3(C)C(=CC[C@@H]4[C@@]5(C)CCC(=O)C(C)(C)[C@@H]5CC[C@]43C)[C@@H]2C1` the IC50 (A549) was > 10 µM.

`CC(C)=CC(=O)O[C@@H]1CC(C)(C)C[C@H]2C3=CC[C@@H]4[C@@]5(C)CCC(=O)C(C)(C)[C@@H]5CC[C@@]4(C)[C@]3(C)CC[C@@]12C(=O)O` showed an IC50 (A549) of 1.19 µM.

In the case of `C/C=C(/C)C(=O)O[C@@H]1CC(C)(C)C[C@H]2C3=CC[C@@H]4[C@@]5(C)CC[C@H](OC(=O)c6cccc(F)c6)C(C)(C)[C@@H]5CC[C@@]4(C)[C@]3(C)CC[C@@]12C(=O)O`, the IC50 (A549) is reported as > 10 µM.

For `CCCC(=O)O[C@@H]1CC(C)(C)C[C@H]2C3=CC[C@@H]4[C@@]5(C)CCC(=O)C(C)(C)[C@@H]5CC[C@@]4(C)[C@]3(C)CC[C@@]12C(=O)O`, the IC50 (A549) was > 10 µM.

With `CC(C)=CC(=O)O[C@@H]1CC(C)(C)C[C@H]2C3=CC[C@@H]4[C@@]5(C)CC[C@H](OC(=O)c6ccccc6F)C(C)(C)[C@@H]5CC[C@@]4(C)[C@]3(C)CC[C@@]12C(=O)O` the IC50 (A549) was 1.96 µM.
